In this experiment the test system is TNFα. Put plainly: LPS Stimulated Whole Blood Measuring TNFα Levels Assay. The class given is cell-based. The conditions noted are these: 24 h, LPS 200 ng/ml, immunoassay, read-out: pIC50, TNFα levels in LPS stimulated whole blood (converted). The method, then: LPS Stimulated Whole Blood Measuring TNFα Levels Assay
Activation of monocytic cells by agonists of toll-like receptors such as bacterial lipopolysaccharide (LPS) results in production of key inflammatory mediators including TNFα. Such pathways are widely considered to be central to the pathophysiology of a range of auto-immune and inflammatory disorders.
Compounds to be tested are diluted to give a range of appropriate concentrations and 1 ul of the dilution stocks is added to wells of a 96 plate. Following addition of whole blood (130 ul) the plates are incubated at 37 degrees (5% CO2) for 30 min before the addition of 10 ul of 2.8 ug/ml lipopolysaccharides (LPS), diluted in complete RPMI 1640 (final concentration=200 ng/ml), to give a total volume of 140 ul per well. After further incubation for 24 hours at 37 degrees, 140 ul of PBS are added to each well. The plates are sealed, shaken for 10 minutes and then centrifuged (2500 rpm×10 min). 100 ul of the supernatant are removed and TNFα levels assayed by immunoassay (typically by MesoScale Discovery technology) either immediately or following storage at −20 degrees. Dose response curves for each compound was generated from the data and an IC50 value was calculated.

Where a name gives a salt, the structure may show the parent alone.

As for `CC(=O)N1c2ccc(Br)cc2[C@H](NC(=O)OC(C)C)C[C@@H]1C` [Example 4, 1-methylethyl[(2S,4R)-1-acetyl-6-bromo-2-methyl-1,2,3,4-tetrahydro-4-quinolinyl]carbamate], the IC50 is at most 6.31 µM.
For `CC(=O)N1c2ccc(-c3ccc(N4CCN(C(=O)OC(C)(C)C)CC4)nc3)cc2[C@@H](NC(=O)OC(C)C)C[C@H]1C` (racemic) [Example 8, 1,1-dimethylethyl 4-{5-[(cis)-1-acetyl-2-methyl-4-({[(1-methylethyl)oxy]carbonyl}amino)-1,2,3,4-tetrahydro-6-quinolinyl]-2-pyridinyl}-1-piperazinecarboxylate] the value was at most 6.31 µM; for `CC(=O)N1c2ccc(-c3ccc(N(C)C)nc3)cc2[C@@H](NC(=O)OC(C)C)C[C@H]1C` (racemic) [Example 48, 1-methylethyl {(cis)-1-acetyl-6-[6-(dimethylamino)-3-pyridinyl]-2-methyl-1,2,3,4-tetrahydro-4-quinolinyl}carbamate hydrochloride], at most 6.31 µM; for `CC(=O)N1c2ccc(-c3cnn(CCN4CCC(N)CC4)c3)cc2[C@@H](NC(=O)OC(C)C)C[C@H]1C` (racemic) [Example 39, 1-methylethyl((cis)-1-acetyl-6-{1-[2-(4-amino-1-piperidinyl)ethyl]-1H-pyrazol-4-yl}-2-methyl-1,2,3,4-tetrahydro-4-quinolinyl)carbamate dihydrochloride], at most 6.31 µM.
Regarding `CC(=O)N1c2ccc(-c3ccc(N4CCCCC4)nc3)cc2[C@@H](NC(=O)OC(C)C)C[C@H]1C` (racemic) [Example 11, 1-methylethyl {(cis)-1-acetyl-2-methyl-6-[6-(1-piperidinyl)-3-pyridinyl]-1,2,3,4-tetrahydro-4-quinolinyl}carbamate hydrochloride], the IC50 is at most 6.31 µM.
Consider `CC(=O)N1c2ccc(-c3csc(CN4CCCCC4)n3)cc2[C@@H](NC(=O)OC(C)C)C[C@H]1C` (racemic) [Example 41, 1-methylethyl {(cis)-1-acetyl-2-methyl-6-[2-(1-piperidinylmethyl)-1,3-thiazol-4-yl]-1,2,3,4-tetrahydro-4-quinolinyl}carbamate], for which the IC50 is at most 6.31 µM.
On to `CC(=O)N1c2ccc(-c3cnn(CCN4CCCCC4)c3)cc2[C@@H](NC(=O)OC(C)C)C[C@H]1C` (racemic) [Example 46, 1-methylethyl((cis)-1-acetyl-2-methyl-6-{1-[2-(1-piperidinyl)ethyl]-1H-pyrazol-4-yl}-1,2,3,4-tetrahydro-4-quinolinyl)carbamate hydrochloride], for which the IC50 was at most 6.31 µM.
As for `CC(=O)N1c2ccc(-c3cnc(N4CCOCC4)nc3)cc2[C@@H](NC(=O)OC(C)C)C[C@H]1C` (racemic) [Example 51, 1-methylethyl {(cis)-1-acetyl-2-methyl-6-[2-(4-morpholinyl)-5-pyrimidinyl]-1,2,3,4-tetrahydro-4-quinolinyl}carbamate hydrochloride], the IC50 is at most 6.31 µM.
Turning to `CC(=O)N1c2ccc(-c3ccc(CN4CCCCC4)cc3)cc2[C@@H](NC(=O)OC(C)(C)C)C[C@H]1C` (racemic) [Example 17, 1,1-dimethylethyl {(cis)-1-acetyl-2-methyl-6-[4-(1-piperidinylmethyl)phenyl]-1,2,3,4-tetrahydro-4-quinolinyl}carbamate], the IC50 is at most 6.31 µM.
In the case of `CC(=O)N1c2ccc(-c3ccc(CO)cc3)cc2[C@H](NC(=O)OC(C)C)C[C@@H]1C` (relative stereo) [Example 15, 1-methylethyl {(cis)-1-acetyl-6-[4-(hydroxymethyl)phenyl]-2-methyl-1,2,3,4-tetrahydro-4-quinolinyl}carbamate], the IC50 is at most 6.31 µM.
Turning to `CC(=O)N1c2ccc(Br)cc2[C@@H](NC(=O)OC2CCC2)C[C@H]1C` (racemic) [Example 33, cyclobutyl[(cis)-1-acetyl-6-bromo-2-methyl-1,2,3,4-tetrahydro-4-quinolinyl]carbamate], the IC50 was at most 6.31 µM.
As for `CNc1ccc(-c2ccc3c(c2)[C@@H](NC(=O)OC(C)C)C[C@@H](C)N3C(C)=O)cn1` (racemic) [Example 53, 1-methylethyl {(cis)-1-acetyl-2-methyl-6-[6-(methylamino)-3-pyridinyl]-1,2,3,4-tetrahydro-4-quinolinyl}carbamate hydrochloride], the IC50 was at most 6.31 µM.

Source of the values: US8697725B2, “Tetrahydroquinoline derivatives and their pharmaceutical use” (GlaxoSmithKline LLC, priority 2009, dated 2014).
